Target: GBA1 (Homo sapiens (Human), UniProt P04062)
Assay: Kinetic constants of GBA1 inhibition (Table 2)
Type: biochemical
Details: Table 2 kinetic constants

GBA1, sequence (P04062 40-536): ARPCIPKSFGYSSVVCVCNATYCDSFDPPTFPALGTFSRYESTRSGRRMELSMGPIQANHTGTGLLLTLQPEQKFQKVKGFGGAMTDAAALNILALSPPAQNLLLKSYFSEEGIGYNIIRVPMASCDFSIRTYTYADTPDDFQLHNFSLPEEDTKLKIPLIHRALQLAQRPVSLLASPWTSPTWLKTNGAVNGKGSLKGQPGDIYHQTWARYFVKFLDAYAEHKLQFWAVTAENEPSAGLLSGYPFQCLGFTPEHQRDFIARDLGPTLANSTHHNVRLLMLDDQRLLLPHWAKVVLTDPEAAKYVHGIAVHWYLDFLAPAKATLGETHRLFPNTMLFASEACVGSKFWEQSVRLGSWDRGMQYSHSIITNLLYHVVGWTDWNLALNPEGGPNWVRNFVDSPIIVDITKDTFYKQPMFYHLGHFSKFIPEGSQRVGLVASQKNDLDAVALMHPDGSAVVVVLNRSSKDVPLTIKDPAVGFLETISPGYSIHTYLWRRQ

Structure (SMILES): [N-]=[N+]=NC[C@@H]1[C@@H](O)[C@H](O)[C@@H](O)[C@@H]2O[C@H]12 [KY170, (2S,3R,4S,5S)-8-azido-8-deoxy-cyclophellitol]
- ki: 0.0237 min⁻¹
